Experimental data taken from patent US9676756B2 (PORTOLA PHARMACEUTICALS, INC., priority 2012, dated 2017).

What was measured:
Type in all cases: biochemical
[1] = molecular target: T1, full length active recombinant SYK enzyme (Homo sapiens, UniProt P43405); test: SYK tyrosine phosphorylation activity, LANCE TR-FRET kinase assay; conditions: 1 nM SYK, 100 μM ATP, 1 hour at room temperature
T1 construct: full length active recombinant SYK enzyme (Millipore, CA); purchased Millipore
Experimental: Potency of candidate molecules for inhibiting Syk tyrosine phosphorylation activity is assessed by measuring the ability of a test compound to inhibit Syk-mediated tyrosine phosphorylation of a Syk-specific substrate.
SYK tyrosine phosphorylation activity is measured using the LANCE™ Technology developed by Perkin Elmer Life and Analytical Sciences (Boston, Mass.). LANCE™ refers to homogeneous time resolved fluorometry applications using techniques such as time-resolved fluorescence resonance energy transfer assay (TR-FRET) (see generally for procedures in Perkin Elmer Application Note—How to Optimize a Tyrosine Kinase Assay Using Time Resolved Fluorescence-Based LANCE Detection, wwww.perkinelmer.com/lifesciences). The assay principle involves detection of a phosphorylated substrate using energy transfer from a phosphospecific europium-labeled antibody to streptavidin-allophycocyanin as an acceptor.
To test the ability of candidate molecules to inhibit SYK tyrosine phosphorylation activity, molecules are reconstituted in 30% DMSO and serially diluted 1:3 with the final dilution containing DMSO in the absence of the candidate molecule. The final DMSO concentration in the assay is 3%. Kinase assays are performed as a two part reaction. The first reaction is a kinase reaction that comprises a candidate molecule, full length active recombinant SYK enzyme (Millipore, CA) and biotin-labeled SYK-specific substrate biotin-[…]-OH. The second reaction involves termination of the kinase reaction and the simultaneous addition of the detection reagents-europium-labeled anti-phosphotyrosine reagent (Eu-W1024-PY100, Perkin Elmer, Boston, Mass.) and Streptavidin-Allophycocyanin detection reagent (SA-APC, Prozyme, CA). The kinase reaction is performed in a black U-bottom 96-well microtitre plate. The final reaction volume is 50 μL and contains a final concentration of 1 nM active SYK enzyme, 550 nM SYK-substrate, and 100 μM ATP diluted in a buffer containing 50 mM Tris pH 7.5, 5 mM MgCl2, and 1 mM DTT. The reaction is allowed to proceed for 1 hour at room temperature. The stop buffer contains 100 mM Tris pH 7.5, 300 mM NaCl2, 20 mM EDTA, 0.02% Brij35, and 0.5% BSA. The detection reagents are added to the reaction mixture at the following dilutions—1:500 for Eu-W1024-PY100 and 1:250 for SA-APC. The kinase reaction is terminated by the addition of 50 μL stop buffer containing the detection reagents. The detection is allowed to proceed for 1 hr at room temperature. Detection of the phosphorolated substrate in the absence and presence of inhibitors is measured in the TR-FRET instrument, Analyst HT (Molecular Probes, Sunnyvale, Calif.) and the condition for measurements are set up using CriterionHost Release 2.0 (Molecular Probes, Sunnyvale, Calif.). The settings used are a follows: excitation 360 nm, emission 665-7.5 nm, beam splitter 350 nm 50/50, flash 100 pulses, delay 60 us, integration 400 us, z-height 2 mm. Inhibition of SYK-tyrosine kinase activity is calculated as the maximum response observed in the presence of inhibitor, compared to that in the absence of inhibitor. IC50s are derived by non-linear regression analysis.

JAK1 = molecular target: T2, JAK1 (Homo sapiens, UniProt P23458); test: JAK tyrosine phosphorylation activity, Z'-LYTE FRET kinase assay; conditions: catalytic domain recombinant kinase, Tyr6 peptide
T2 construct: 5 μl of catalytic domain recombinant Kinase enzyme+Tyr peptide substrate (Invitrogen, CA); purchased Invitrogen
T2 sequence (P23458 875-1153 limits assumed): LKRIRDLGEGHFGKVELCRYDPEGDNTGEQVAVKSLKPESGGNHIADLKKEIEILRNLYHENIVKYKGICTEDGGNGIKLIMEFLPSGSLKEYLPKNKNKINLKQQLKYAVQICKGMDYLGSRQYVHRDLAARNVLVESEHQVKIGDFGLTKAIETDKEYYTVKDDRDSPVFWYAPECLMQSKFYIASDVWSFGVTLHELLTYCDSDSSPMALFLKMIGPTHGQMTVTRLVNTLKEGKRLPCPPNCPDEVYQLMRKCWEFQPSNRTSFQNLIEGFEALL
Experimental: (§1) JAK and SYK tyrosine phosphorylation activity is measured using the Z'-LYTE™ Technology developed by Invitrogen Corporation (Carlsbad, Calif.). For JAK1, JAK2 and JAK3 the Z'-LYTE™ Kinase Assay Kit-Tyr6 Peptide (part number PV4122) was used. The Z'-LYTE™ biochemical assay employs a fluorescence resonance energy transfer (FRET) coupled-enzyme format and is based on the differential sensitivity of phosphorylated and non-phosphorylated peptides to proteolitic cleavage. The assay uses a synthetic peptide substrate that is labelled with a donor fluorophore (coumarin) and an acceptor fluorophore (fluorescein) that make up a FRET pair. In the primary reaction (the Kinase Reaction), the kinase transfers the γ-phosphate of ATP to a single tyrosine residue on the substrate, while the presence of a kinase inhibitor in the primary reaction suppresses phosphorylation. In the secondary reaction (the Development Reaction), a site-specific protease (the Development Reagent) is added. The development buffer quenches the Kinase Reaction, while the protease recognizes and cleaves non-phosphorylated Z'-LYTE™ peptide substrate. Cleavage disrupts FRET between the donor and acceptor fluorophores on the non-phosphorylated substrate, while uncleaved, phosphorylated substrate maintains FRET.
(§2) To test the ability of candidate molecules to inhibit JAK tyrosine phosphorylation activity, molecules are reconstituted in 100% DMSO and serially diluted 1:10 in polypropylene v-bottom microtiter plates. The candidate molecules are then diluted 1:25 into kinase buffer and 2.5 μl transferred into duplicate wells of a 384 well low volume black microtiter assay plate (Corning, USA). The final DMSO concentration in the assay is 1%. The kinase reaction contains 2.5 μl of a candidate molecule, 5 μl of catalytic domain recombinant Kinase enzyme+Tyr peptide substrate (Invitrogen, CA) and 2.5 μl ATP (Invitrogen, CA). The kinase reaction is allowed to precede for 1 hour at room temperature. The protease reaction is initiated by the addition of 5 μl Development Reagent (Invitrogen, CA). After 1 hour incubation at room temperature the fluorescence is measured using a FlexStation plate reader (Molecular Devices, Sunnyvale, Calif.). The reader settings used are as follows: Fluorescence mode, endpoint, top read, excitation 400 nm, emission 445 nm and 520 nm. Auto Cutoff 435 nm and 515 nm, PMT sensitivity high, 6 reads per well. Inhibition of JAK activity is calculated as the percent phosphorylation of substrate in the presence of inhibitor compared to the percent phosphorylation of substrate in the absence of inhibitor. IC50's were derived using Xlfit 4.3 (IDBS, UK), 4 parameter logistic model 205: Y=(A+((B−A)/(1+((C/x)^D)))).

JAK2 = molecular target: T3, JAK2 (Homo sapiens, UniProt O60674); test: as above; conditions: catalytic domain recombinant kinase, Tyr6 peptide
T3 construct: 5 μl of catalytic domain recombinant Kinase enzyme+Tyr peptide substrate (Invitrogen, CA); purchased Invitrogen
T3 sequence (O60674 849-1124 limits assumed): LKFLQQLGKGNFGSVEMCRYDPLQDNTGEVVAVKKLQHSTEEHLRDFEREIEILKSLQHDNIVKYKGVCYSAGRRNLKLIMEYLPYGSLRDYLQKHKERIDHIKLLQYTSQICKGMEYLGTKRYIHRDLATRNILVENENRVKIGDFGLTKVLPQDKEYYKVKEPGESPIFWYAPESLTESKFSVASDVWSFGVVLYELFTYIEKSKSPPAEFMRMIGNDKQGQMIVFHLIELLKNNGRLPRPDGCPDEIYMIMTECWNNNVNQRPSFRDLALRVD
Experimental: as §1, §2

JAK3 = molecular target: T4, JAK3 (Homo sapiens, UniProt P52333); test: as above; conditions: catalytic domain recombinant kinase, Tyr6 peptide
T4 construct: 5 μl of catalytic domain recombinant Kinase enzyme+Tyr peptide substrate (Invitrogen, CA); purchased Invitrogen
T4 sequence (P52333 822-1111 limits assumed): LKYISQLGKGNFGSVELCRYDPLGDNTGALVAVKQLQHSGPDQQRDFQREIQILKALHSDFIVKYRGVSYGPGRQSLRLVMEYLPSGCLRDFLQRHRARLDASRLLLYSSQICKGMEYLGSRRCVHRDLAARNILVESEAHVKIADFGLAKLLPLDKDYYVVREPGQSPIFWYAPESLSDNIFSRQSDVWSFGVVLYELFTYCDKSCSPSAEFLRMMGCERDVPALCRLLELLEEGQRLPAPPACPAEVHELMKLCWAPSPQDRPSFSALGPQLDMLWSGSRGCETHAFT
Experimental: as §1, §2

CCS(=O)(=O)N1CCN(c2ccc(Nc3ncc(C(N)=O)c(NC4CC4)n3)cc2OC)CC1 [Compound 9, 4-(cyclopropylamino)-2-((4-(4-(ethylsulfonyl)piperazin-1-yl)-3-methoxyphenyl)amino)pyrimidine-5-carboxamide]
IC50 [1]: +++ (0.10 uM<IC50<0.01 uM) | JAK1 IC50 potency class (JAK1): +++ (0.10 uM<IC50<0.01 uM) | JAK2 IC50 potency class (JAK2): ++++ (0.01 uM<IC50<0.001 uM) | JAK3 IC50 potency class (JAK3): ++++ (0.01 uM<IC50<0.001 uM)

COC(=O)N1CCC(c2ccc(Nc3ncc(C(N)=O)c(NC4CC4)n3)cc2)CC1 [Compound 10, methyl 4-(4-((5-carbamoyl-4-(cyclopropylamino)pyrimidin-2-yl)amino)phenyl)piperidine-1-carboxylate]
IC50 [1]: +++ (0.10 uM<IC50<0.01 uM) | JAK1 IC50 potency class (JAK1): +++ (0.10 uM<IC50<0.01 uM) | JAK2 IC50 potency class (JAK2): +++ (0.10 uM<IC50<0.01 uM) | JAK3 IC50 potency class (JAK3): ++++ (0.01 uM<IC50<0.001 uM)

CCOC(=O)N1CCC(c2ccc(Nc3ncc(C(N)=O)c(NC4CC4)n3)cc2)CC1 [Compound 11, ethyl 4-(4-((5-carbamoyl-4-(cyclopropylamino)pyrimidin-2-yl)amino)phenyl)piperidine-1-carboxylate]
IC50 [1]: +++ (0.10 uM<IC50<0.01 uM) | JAK1 IC50 potency class (JAK1): ++ (1.0 uM<IC50<0.10 uM) | JAK2 IC50 potency class (JAK2): +++ (0.10 uM<IC50<0.01 uM) | JAK3 IC50 potency class (JAK3): +++ (0.10 uM<IC50<0.01 uM)

CN(C)S(=O)(=O)N1CCC(c2ccc(Nc3ncc(C(N)=O)c(NC4CC4)n3)cc2)CC1 [Compound 12, 4-(cyclopropylamino)-2-((4-(1-(N,N-dimethylsulfamoyl)piperidin-4-yl)phenyl)amino)pyrimidine-5-carboxamide]
IC50 [1]: ++ (1.0 uM<IC50<0.10 uM) | JAK1 IC50 potency class (JAK1): +++ (0.10 uM<IC50<0.01 uM) | JAK2 IC50 potency class (JAK2): +++ (0.10 uM<IC50<0.01 uM) | JAK3 IC50 potency class (JAK3): ++++ (0.01 uM<IC50<0.001 uM)

NC(=O)c1cnc(Nc2ccc(C3CCN(C(=O)N4CCCC4)CC3)cc2)nc1NC1CC1 [Compound 13, 4-(cyclopropylamino)-2-((4-(1-(pyrrolidine-1-carbonyl)piperidin-4-yl)phenyl)amino)pyrimidine-5-carboxamide]
IC50 [1]: ++ (1.0 uM<IC50<0.10 uM) | JAK1 IC50 potency class (JAK1): +++ (0.10 uM<IC50<0.01 uM) | JAK2 IC50 potency class (JAK2): +++ (0.10 uM<IC50<0.01 uM) | JAK3 IC50 potency class (JAK3): ++++ (0.01 uM<IC50<0.001 uM)

NC(=O)c1cnc(Nc2ccc(C3CCN(C4CCOCC4)CC3)cc2)nc1NC1CC1 [Compound 14, 4-(cyclopropylamino)-2-((4-(1-(tetrahydro-2H-pyran-4-yl)piperidin-4-yl)phenyl)amino)pyrimidine-5-carboxamide]
IC50 [1]: +++ (0.10 uM<IC50<0.01 uM) | JAK1 IC50 potency class (JAK1): +++ (0.10 uM<IC50<0.01 uM) | JAK2 IC50 potency class (JAK2): ++++ (0.01 uM<IC50<0.001 uM) | JAK3 IC50 potency class (JAK3): ++++ (0.01 uM<IC50<0.001 uM)

CCN1CCC(c2ccc(Nc3ncc(C(N)=O)c(NC4CC4)n3)cc2)CC1 [Compound 15, 4-(cyclopropylamino)-2-((4-(1-ethylpiperidin-4-yl)phenyl)amino)pyrimidine-5-carboxamide]
IC50 [1]: +++ (0.10 uM<IC50<0.01 uM) | JAK1 IC50 potency class (JAK1): +++ (0.10 uM<IC50<0.01 uM) | JAK2 IC50 potency class (JAK2): ++++ (0.01 uM<IC50<0.001 uM) | JAK3 IC50 potency class (JAK3): ++++ (0.01 uM<IC50<0.001 uM)

NC(=O)c1cnc(Nc2ccc(C3CCN(c4ccccc4)CC3)cc2)nc1NC1CC1 [Compound 16, 4-(cyclopropylamino)-2-((4-(1-phenylpiperidin-4-yl)phenyl)amino)pyrimidine-5-carboxamide]
IC50 [1]: ++ (1.0 uM<IC50<0.10 uM) | IC50 (JAK1; read-out: JAK1 IC50 % Inhibition): > 1000 nM | JAK2 IC50 potency class (JAK2): ++ (1.0 uM<IC50<0.10 uM) | JAK3 IC50 potency class (JAK3): +++ (0.10 uM<IC50<0.01 uM)

NC(=O)c1cnc(Nc2ccc(C3CCN(c4cccnc4)CC3)cc2)nc1NC1CC1 [Compound 17, 4-(cyclopropylamino)-2-((4-(1-(pyridin-3-yl)piperidin-4-yl)phenyl)amino)pyrimidine-5-carboxamide]
IC50 [1]: ++ (1.0 uM<IC50<0.10 uM) | JAK1 IC50 potency class (JAK1): +++ (0.10 uM<IC50<0.01 uM) | JAK2 IC50 potency class (JAK2): +++ (0.10 uM<IC50<0.01 uM) | JAK3 IC50 potency class (JAK3): +++ (0.10 uM<IC50<0.01 uM)

N#CCC(=O)N1CCC(c2ccc(Nc3ncc(C(N)=O)c(NC4CC4)n3)cc2)CC1 [Compound 25, 2-((4-(1-(2-cyanoacetyl)piperidin-4-yl)phenyl)amino)-4-(cyclopropylamino)pyrimidine-5-carboxamide]
IC50 [1]: +++ (0.10 uM<IC50<0.01 uM) | JAK1 IC50 potency class (JAK1): +++ (0.10 uM<IC50<0.01 uM) | JAK2 IC50 potency class (JAK2): ++++ (0.01 uM<IC50<0.001 uM) | JAK3 IC50 potency class (JAK3): ++++ (0.01 uM<IC50<0.001 uM)

CS(=O)(=O)N1CCN(c2ccc(Nc3ncc(C(N)=O)c(NC4CC4)n3)cc2F)CC1 [Compound 41, 4-(cyclopropylamino)-2-((3-fluoro-4-(4-(methylsulfonyl)piperazin-1-yl)phenyl)amino)pyrimidine-5-carboxamide]
IC50 [1]: +++ (0.10 uM<IC50<0.01 uM) | JAK1 IC50 potency class (JAK1): +++ (0.10 uM<IC50<0.01 uM) | JAK2 IC50 potency class (JAK2): ++++ (0.01 uM<IC50<0.001 uM) | JAK3 IC50 potency class (JAK3): ++++ (0.01 uM<IC50<0.001 uM)

CCS(=O)(=O)N1CCN(c2ccc(Nc3ncc(C(N)=O)c(NC4CC4)n3)cc2F)CC1 [Compound 42, 4-(cyclopropylamino)-2-((4-(4-(ethylsulfonyl)piperazin-1-yl)-3-fluorophenyl)amino)pyrimidine-5-carboxamide]
IC50 [1]: +++ (0.10 uM<IC50<0.01 uM) | JAK1 IC50 potency class (JAK1): +++ (0.10 uM<IC50<0.01 uM) | JAK2 IC50 potency class (JAK2): ++++ (0.01 uM<IC50<0.001 uM) | JAK3 IC50 potency class (JAK3): ++++ (0.01 uM<IC50<0.001 uM)

CCS(=O)(=O)N1CCN(c2ccc(Nc3ncc(C(N)=O)c(NC4CC4)n3)cc2Cl)CC1 [Compound 43, 2-((3-chloro-4-(4-(ethylsulfonyl)piperazin-1-yl)phenyl)amino)-4-(cyclopropylamino)pyrimidine-5-carboxamide]
IC50 [1]: +++ (0.10 uM<IC50<0.01 uM) | JAK1 IC50 potency class (JAK1): ++ (1.0 uM<IC50<0.10 uM) | JAK2 IC50 potency class (JAK2): +++ (0.10 uM<IC50<0.01 uM) | JAK3 IC50 potency class (JAK3): +++ (0.10 uM<IC50<0.01 uM)
